Columns and labels:
Format in all cases: cell-based, human
TamR cells (MCF7 LCC9) [1] = experiment: Colony survival assay, TamR cells
Description: (§1) Cells were fixed in 70% ethanol overnight. Cells were subjected to RNaseA treatment and stained with propidium iodide (PI). Data was collected using FACScalibur and analyzed with FloJo 10.0 software. Data from 3 independent experiments are shown. SEMs are shown. **P<0.01 and ***P<0.001 by two-way ANOVA. […] TamS and TamR cells were treated with either DMSO or 1 μM 4-OH Tam and initiated on day 0. Results are representative of 3 independent experiments and presented as relative proliferation in which all samples are normalized to Day 0. Standard deviations are shown. *P<0.05 by t-test. […] Cells were treated with either DMSO or 1 μM 4-HT 24 hours after plating. Colonies scored after 10 days counting only ≥50 cells/colony. Results are representative of 3 independent experiments. SEMs are shown. ***P<0.001 by two-way ANOVA. […] Equal amounts of RNA were reverse transcribed and quantified through real-time PCR. RNA levels normalized to GAPDH using the ^−ΔΔCt method. Error bars represent SEM. […] RNA levels normalized to GAPDH using the ^−ΔΔCt method. Error bars represent SEM.
Cells were lysed in NP-40 buffer and probed for key translation factors. β-tubulin (loading control). […] Cells were treated with either DMSO or 1 μM 4-OH Tam 24 hours after plating. Dox (1 μg/mL) was administered 24 hours after plating and removed after 72 hours. Colonies scored after 10 days counting only ≥50 cells/colony. SEM is shown. […] Cells were treated with either DMSO control or 1 μM 4-OH Tam for 72 hours in 1% CS-FBS. Dox (1 μg/mL) was administered to cells for 72 hours. […] Data was collected using LSRII UV and analyzed with FloJo software. […] Data was collected using FACScalibur and analyzed with FloJo 10.0 software. […] Data was collected using FACScalibur and analyzed with FloJo 10.0 software. […] Colonies scored after 10 days counting only ≥50 cells/colony. […]
Hsp70 (loading control). […] Colonies were scored after 10 days counting only >50 cells/colony. […] Equal amounts of RNA were resolved by sucrose gradient centrifugation and ribosome profiles monitored by UV absorbance 254 nm. […]

TamR cells (MCF7 LCC9) [2] = experiment: Cell cycle analysis, TamR cells; settings: 20 nM RAD001 plus 1 μM 4-OH Tam, 72 hours
Description: Cells were lysed in NP-40 buffer and probed for key translation factors. β-tubulin (loading control). […] Cells were treated with either DMSO or 1 μM 4-OH Tam 24 hours after plating. Dox (1 μg/mL) was administered 24 hours after plating and removed after 72 hours. Colonies scored after 10 days counting only ≥50 cells/colony. SEM is shown. […] Cells were treated with either DMSO control or 1 μM 4-OH Tam for 72 hours in 1% CS-FBS. Dox (1 μg/mL) was administered to cells for 72 hours. Cells were fixed in 70% ethanol overnight and subjected to RNaseA treatment. Cells were stained with Hoechst 33342. Data was collected using LSRII UV and analyzed with FloJo software. Data from 3 independent experiments are shown. SEM is shown. *P<0.05 by two-way ANOVA. […] Cap chromatography performed on TamR cells with or without 4E-BP1 cDNA overexpression. Cells were lysed in NP-40 buffer and pulldown was performed for 1 hour at 4° C. Proteins were eluted and resolved via SDS-PAGE. […] Data was collected using FACScalibur and analyzed with FloJo 10.0 software. […] Data was collected using FACScalibur and analyzed with FloJo 10.0 software. […] Colonies scored after 10 days counting only ≥50 cells/colony. […]
(§2) Cell Cycle Analysis: Cells were trypsinized, filtered, and counted using an automated cell counter (Bio-Rad). […] Data were collected using a FACScalibur or LSRII UV and analyzed with FlowJo 10.0.

TamR cells (MCF7 LCC9) [3] = experiment: Cell proliferation assay (MTT), TamR cells; settings: 1 μM 4-OH Tam
Description: as §1
Endogenous eIF4E was silenced by shRNA. […]
Cell Proliferation Assay: Cell proliferation was measured using the CellTiter 96 nonradioactive cell proliferation assay kit (Promega) according to the manufacturer's instructions. […] Absorbance was measured at 570 nm. […]

BR7 (PDX) cells = experiment: Cell cycle analysis, BR7 (PDX) cells; settings: 1 μM 4-OH Tam
Description: as §1, §2

[4] = system: canonical ER signaling in TamR cells; experiment: ER signaling mRNA expression (c-Myc, EEIG1) by real-time PCR, TamR cells; settings: Tam for 24 hours
Description: as §1
(§3) Quantitative Real-Time PCR (RT-qPCR) and Analysis: RNA was extracted using Trizol as per the manufacturer's instructions. […] Fold change was calculated using the 2^−ΔΔCt method.

[5] = system: canonical ER signaling in BR7 cells; experiment: ER signaling mRNA expression (c-Myc, EEIG1) by real-time PCR, BR7 (PDX) cells; settings: Tam for 24 hours
Description: as §1, §3

TamS cells (MCF7 LCC1) = experiment: Cell cycle analysis, TamS cells with or without eIF4E overexpression; settings: 1 μM 4-OHT for 72 h, regardless of eIF4E overexpression
Description: Dox (2 μg/mL) was added 72 hours prior to lysis in NP-40 buffer. Equal protein amounts were immunoblotted as shown. β-Actin was used as a loading control. […] Dox (2 μg/mL) was added for 72 hours. Cells were subjected to exhaustive RNase A and stained with propidium iodide (PI). Flow cytometry data were collected using a FACScalibur and analyzed with FloJo software. The average of three studies is shown. […] Cells were treated with 2 μg/mL Dox for 72 hours and lysed in NP-40 buffer. Equal protein amounts were immunoblotted. β-Actin was used as a loading control. Representative results are shown. […] TamS sh-control, eIF4E-overexpressing, shTSC2, and shTSC2 and eIF4E-overexpressing cells were treated with either DMSO or 1 μM 4-OHT. (**)P<0.01; (***)P<0.0001 by two-way ANOVA. […] Results are the average of three independent studies.
Cell Cycle Analysis: Cells were trypsinized, filtered, and counted using an automated cell counter (Bio-Rad). Cells (7×10^5) were seeded on 10-cm culture plates in IMEM (Corning) with 5% FBS (Gibco) and 0.4% gentamicin sulfate (Lonza) and allowed to adhere overnight. The medium was changed to IMEM (Corning) with 1% charcoal-stripped FBS (HyClone) and 0.4% gentamicin sulfate for 48 hours. Cells were treated with the appropriate drug for 72 hours and with fresh drug after 48 hours. […] Data were collected using a FACScalibur or LSRII UV and analyzed with FlowJo 10.0.

## CO[C@H]1C[C@@H]2CC[C@@H](C)[C@@](O)(O2)C(=O)C(=O)N2CCCC[C@H]2C(=O)O[C@H]([C@H](C)C[C@@H]2CC[C@@H](OCCO)[C@H](OC)C2)CC(=O)[C@H](C)/C=C(\C)[C@@H](O)[C@@H](OC)C(=O)[C@H](C)C[C@H](C)/C=C/C=C/C=C/1C [RAD001, Everolimus]
TamR cells (MCF7 LCC9) [1]; 20 nM RAD001 plus 1 μM 4-OH Tam, 10 days
  resensitization to tamoxifen: survival: decreased survival
TamR cells (MCF7 LCC9) [1]; RAD001 added to 1 μM 4-OHT plus 10 μM CGP57380
  cell survival on cotreatment: further additive reduction in cell survival
TamR cells (MCF7 LCC9) [2]
  resensitization to tamoxifen: cell proliferation: restoration of inhibition of cell proliferation

## CC/C(=C(\c1ccccc1)c1ccc(OCCN(C)C)cc1)c1ccccc1 [tamoxifen]
TamR cells (MCF7 LCC9) [3]
  proliferation under tamoxifen: maintain normal proliferation and survival
TamR cells (MCF7 LCC9) [1]; 1 μM 4-OH Tam, 10 days
  survival under tamoxifen: maintain normal proliferation and survival
BR7 (PDX) cells
  cell cycle distribution under tamoxifen: normal cell cycle distribution
[4]
  tamoxifen-induced repression of canonical ER signaling: insensitive
[5]
  tamoxifen-induced repression of canonical ER signaling: insensitive
TamS cells (MCF7 LCC1)
  proliferation in the presence of tamoxifen: unable to proliferate
